Experimental data from paper PMC7822874, “Chemoprotective antimalarials identified through quantitative high-throughput screening of Plasmodium blood and liver stage parasites” (Scientific Reports, 2021).
Where two headings read alike, the source gives them in different places.

How the values were obtained:
HepG2 = details: human, hepg2 cells, 48 h
in vitro = details: human, hepg2 cells
[1] = test system: P. falciparum Dd2 (clone B2) asexual blood stage parasites; experiment: P. falciparum Dd2 asexual blood stage SYBR Green-I 72 h proliferation assay (qHTS); type: cell-based, Plasmodium falciparum; details: Plasmodium falciparum, DD2, Dd2 parental; Hill fit, averaged from three independent replicates; top concentration 29 µM; read-out: Average AC50 (Log[M]), Dd2 (converted)
[2] = test system: P. falciparum Dd2 Cytb G131S; experiment: SYBR Green ABS proliferation assay, NCGC00374598 selected clone C11; type: cell-based, Plasmodium falciparum; details: Plasmodium falciparum
Experimental: (§1) As resistance selection studies implicated the parasite cytochrome bc1 complex in mediating reduced parasite susceptibility to both NCGC00473217 and NCGC00374598, we leveraged these drug-selected parasites to test for altered drug response to a panel of antimalarial compounds.
(§2) The P. falciparum parasite Dd2 line was cultured in vitro using standard conditions. […] Tissue culture flasks and assay plates were incubated at 37 °C under a gas mixture of 5% CO2, 5% O2 and 90% N2. […] Significant differences were assessed using two-sided Student’s t-tests. All HTS assays were stopped and read at 72 h. Percent response values represent relative growth as judged by SYBR Green-I fluorescence intensity values normalized to controls.
(§3) Fresh uninfected RBCs (0.5% hematocrit) were added on day 7 and media was changed every other day. […] Resistant parasites were maintained under drug media at a volume of 50 mL until a high parasitemia (> 5%) was achieved. Aliquots of the bulk resistant cultures were frozen in cryovials before cloning by limiting dilution in 96-well plates (seeded at 0.25 or 0.5 parasites/well)[70]. After 3 weeks of cloning, we screened for positive wells by flow cytometry with SYBR Green-stained cells. […] Parasites were harvested by saponin lysis at the trophozoite stage and genomic DNA was extracted using the QIAamp DNA Blood Midi Kit (Qiagen, Germantown, MD)[71].

[3] = test system: P. falciparum Dd2 Cytb V259L; experiment: SYBR Green ABS proliferation assay, NCGC00473217 selected clone F06; type: cell-based, Plasmodium falciparum; details: Plasmodium falciparum
Experimental: as §1, §2, §3

[4] = DD2, […], averaged from three independent replicates, top concentration 29 µM, read-out: Average AC50 (Log[M]), NCGC00374598 clone C11 (Cytb G131S) (converted)
[5] = DD2, […], averaged from three independent replicates, top concentration 29 µM, read-out: Average AC50 (Log[M]), NCGC00473217 clone F06 (Cytb V259L) (converted)

SMILES	Log AC50 (M) (HepG2)	CC50 at 48 h (in vitro) [µM]	other results
N=c1ccn(Cc2cccc(Cl)c2)cc1 [MLS000080111-01]	-4.4643	34.3	
O=c1c2ccccc2nc2n1CCN2Cc1ccc(Cl)cc1 [MLS000107729-01]	-4.3643	43.2	
O=C(Nc1ccc(Cl)cc1)N1CCC(c2nc(-c3ccccc3Cl)no2)CC1 [MLS000529331-01]	-4.4643	34.3	
Brc1ccc2[nH]c3c(N4CCc5ccccc5C4)ncnc3c2c1 [MLS000556376-01]	-4.3643	43.2	
O=C(N/N=C/c1ccccn1)c1ccccc1 [MLS000562399-01]	-4.3643	43.2	
Cc1ccc(-c2nn(-c3ccccc3)cc2CSC(=N)N)cc1 [MLS000572993-01]	-4.3643	43.2	
Cc1cccc(Cn2nnc3c2C(=O)c2ccccc2C3=O)c1 [MLS000594471-01]	-4.3643	43.2	
Nc1nc(N)c2c(ccc3[nH]ccc32)n1 [MLS000758537-01]	-4.9143	12.2	
COc1ccc(CNc2ncnc3c2[nH]c2ccccc23)cc1 [MLS000768346-01]	-4.3643	43.2	
OC(CNCCc1ccccc1)COc1ccc(OCC(O)CNCCc2ccccc2)cc1 (stereo not drawn) [MLS000769724-01]	-4.3643	43.2	
O=C(Nc1ccc(Oc2cccc(C(F)(F)F)c2)nc1)c1cccs1 [MLS000860613-01]	-4.7643	17.2	
O=C(Nc1ccc(Oc2cccnc2)cc1)C1CCN(Cc2cc(Cl)ccc2O)CC1 [MLS001072411-01]	-4.5143	30.6	
COc1cnc(-c2ccccn2)nc1Oc1ccc(C(C)(C)C)cc1 [MLS001165485-01]	-4.4143	38.5	
CCc1nnc(NC(=O)c2cc(Cl)ccn2)s1 [MLS001175292-01]	-4.3643	43.2	
CC(=O)c1cn(CCOc2ccc(F)cc2)c2ccccc12 [MLS001205469-01]	-4.3643	43.2	
Cc1cc(C)n(-c2nc3ccccc3c(=O)n2OCC#N)n1 [MLS001215162-01]	-4.9143	12.2	
Cc1ccc(NC(=O)CSc2n[nH]c(-c3ccccn3)n2)cc1 [MLS001223214-01]	-4.6143	24.3	
SC(=Nc1ccncc1)NCc1ccccc1 [MLS001230114-01]	-4.5643	27.3	
CCCCCCc1cc2cc(-c3nnc(-c4ccc(C)cc4)o3)c(=O)oc2cc1O [NCGC00098410-01]	-4.4643	34.3	
CCOC(=O)c1ccc(-c2ccc(/C=C(\C#N)c3nc4cc(C)ccc4[nH]3)o2)cc1 [NCGC00098928-01]	-4.3643	43.2	
O=C(Nc1cccc(C(F)(F)F)c1)C1CCN([S+](=O)([O-])c2cccc3nsnc23)CC1 [NCGC00108239-01]	-4.3643	43.2	
CCOC(=O)c1ccc(N2C(=O)c3[nH]nc(-c4ccc(OC)cc4)c3C2c2cccc(O)c2)cc1 (stereo not drawn) [NCGC00108527-01]	-4.3643	43.2	
CCN(CC)CCCNC(=O)c1ccc2c(c1)sc1nc(-c3ccc(C)cc3)cn12 [NCGC00121667-01]	-4.3643	43.2	
Cc1nc(-c2ccc(Cl)cc2)sc1CCNC(=O)c1ccco1 [NCGC00131874-01]	-5.1643	6.85	
Cc1ccccc1Cn1c(CN2CCC(C(=O)NCCN(C)C)CC2)cc2ccccc21 [NCGC00137638-01]	-4.3643	43.2	
CN1C(CCl)Nc2cc(Cl)c([S+](N)(=O)[O-])cc2[S+]1(=O)[O-] (stereo not drawn) [NCGC00167446-03]			AC50 [1]: 2.82e-08 M; AC50 [2, 4]: 3.17e-08 M; AC50 [3, 5]: 3.17e-08 M

SMILES	Log AC50 (M) (HepG2)	CC50 at 48 h (in vitro) [µM]	other results
CC(=O)N1CCN(c2cc(-c3noc([C@@H]4CCCN4Cc4ccc(C(F)(F)F)cc4)n3)ccn2)CC1 [NCGC00394931-01]	-4.5143	30.6	
Fc1ccc(CN2CC[C@H](c3nc4ccc(C(F)(F)F)cc4[nH]3)C2)cc1F [NCGC00396703-01]	-4.3028	49.8	
O=C(C[C@@H]1CCNC[C@@H]1Cc1cc(CC2CCCCC2)on1)NCc1ccccc1 [NCGC00400728-01]	-4.3028	49.8	
COc1ccc2cc1Nc1ccc(cc1)C[C@H](NC(=O)CCc1ccccn1)C(=O)N(C)[C@@H](C(=O)NCc1ccccc1)C2 [NCGC00410291-01]	-4.6143	24.3	
Cc1cc(=O)n(CC(=O)Nc2cccc(C(F)(F)F)c2)c(N2CCC(C)CC2)n1 [NCGC00432189-01]	-4.5143	30.6	
COc1cc(NC(=O)Cn2c(N(C)Cc3ccccc3)nc(C)cc2=O)cc(OC)c1 [NCGC00432301-01]	-4.3643	43.2	
COc1cccc(-c2noc(CCCc3nc(-c4cccnn4)no3)n2)c1 [NCGC00435845-01]	-4.5143	30.6	
CCN1C(=O)C2(CCN([S+](=O)([O-])c3cc(F)ccc3C)CC2)c2ccccc21 [NCGC00435872-01]	-4.4143	38.5	
CC(C(=O)N1CCCN(c2cc(-c3ccc(Cl)cc3)n[nH]2)CC1)c1ccccc1 (stereo not drawn) [NCGC00436178-01]	-4.3643	43.2	
O=C(N1CCCN(c2cc(-c3ccc(Cl)cc3)n[nH]2)CC1)C1(c2ccccc2)CC1 [NCGC00436184-01]	-4.3643	43.2	
O=C(c1ccco1)N1CCCN(c2cc(-c3ccc(Br)cc3)n[nH]2)CC1 [NCGC00436196-01]	-4.3643	43.2	
CCC(C(=O)N1CCN(c2cc(-c3cccs3)n[nH]2)CC1)c1ccccc1 (stereo not drawn) [NCGC00436744-01]	-4.3643	43.2	
O=C(NC1CCN(c2cc(-c3cccs3)n[nH]2)CC1)c1cccc(OC(F)(F)F)c1 [NCGC00437198-01]	-4.3643	43.2	
OC[C@H]1CCN(Cc2ccc(-c3cccc(Cl)c3Cl)o2)C[C@@H]1O [NCGC00438915-01]	-4.5143	30.6	
O=C(CC1C(=O)NCCN1Cc1cccc(Oc2ccccc2)c1)NCc1ccco1 (stereo not drawn) [NCGC00439848-01]	-8.3643	0.00432	
CC(C)c1nc(-c2ccc(OC3CCN(C(=O)c4cc(F)ccc4F)C3)cc2)no1 (stereo not drawn) [NCGC00441011-01]	-4.4643	34.3	
Cc1nn(C)c(C)c1CCC(=O)N1CCC(Cc2noc(-c3ccc(F)cc3)n2)C1 (stereo not drawn) [NCGC00443260-01]	-4.5143	30.6	
C[S+](=O)([O-])N1CCC(OC2CCN(C(=O)Nc3cc(F)ccc3F)CC2)CC1 [NCGC00445092-01]	-4.3643	43.2	
CCCCOc1ccc(-c2nc(C3CC(=O)N(C4CCCCC4)C3)no2)cc1 (stereo not drawn) [NCGC00448051-01]	-4.4643	34.3	
CCCN1C(CC(C)C)=N[S+](=O)([O-])c2cc(NC(=O)C3CCOCC3)ccc21 [NCGC00521138-01]			AC50 [2, 4]: 3.99e-06 M; AC50 [3, 5]: 1.22e-05 M
CCCN1C(CC(C)C)=N[S+](=O)([O-])c2cc(N[S+](=O)([O-])c3ccccc3C)ccc21 [NCGC00521140-01]			AC50 [3, 5]: 1e-05 M
CCCN1C(CC(C)C)=N[S+](=O)([O-])c2cc(N[S+](=O)([O-])c3cc4ccccc4s3)ccc21 [NCGC00521156-01]			AC50 [1]: 1.26e-06 M; AC50 [2, 4]: 1e-06 M
CCCN1C(CC(C)C)=N[S+](=O)([O-])c2cc(N[S+](=O)([O-])c3ccc(Cl)s3)ccc21 [NCGC00521874-01]			AC50 [1]: 1.42e-06 M; AC50 [2, 4]: 8.93e-07 M; AC50 [3, 5]: 7.1e-07 M
CCCN1C(C)=N[S+](=O)([O-])c2cc(NC(=O)c3cccs3)ccc21 [NCGC00522606-01]			AC50 [1]: 8.93e-06 M; AC50 [2, 4]: 2e-06 M
CCCN1C(C)=N[S+](=O)([O-])c2cc(NC(=O)c3ccc(F)cc3)ccc21 [NCGC00522607-01]			AC50 [1]: 1.12e-06 M; AC50 [2, 4]: 1.26e-06 M
CCCN1C(CC(C)C)=N[S+](=O)([O-])c2cc(NC(=O)c3cccc(C#N)c3)ccc21 [NCGC00531772-01]			AC50 ([2]; DD2, cytochrome b mutant line, second value triple, c6, […], read-out: log AC50, mean (converted)): 2.67e-07 M; AC50 ([3]; DD2, cytochrome b mutant line, third value triple, c9, […], read-out: log AC50, mean (converted)): 8.93e-07 M
